In assay [1] the test system is primary Leydig cells. The assay is described as follows: Osteocalcin stimulation of primary Leydig cells, testosterone RIA. In kind it is cell-based, mouse. The following applies: increasing amounts of osteocalcin (0-100 ng/ml). Here is the method: (§1) Adult mouse Leydig cells were isolated by mechanical dissociation of the testes followed by purification on a 0-90% Percoll gradient (Hunter et al., 1982, Mol. Cell. Endocrinol. 25:35-47; Schumacher et al., 1978, FEBS Lett. 91:333-338). Primary Leydig cells were cultured in Minimal Essential Medium (MEM+GlutaMAX, Invitrogen) supplemented with 1× PenStrep, 25 mM HEPES, pH 7.4 and 0.07% BSA at 33° C. in 5% CO2. After 3 hours of attaching and starvation, cells were washed once with culture medium and then used for experiments. The preparation of testis explants was adapted from Powlin et al., 1998, Toxicol. Sci. 46:61-74. Explants were washed 3 times with PBS 1× and placed in serum free RPMI medium for 2 hours before being used for experiments.
(§2) After 1 hour, an aliquot of medium was collected for measurements of testosterone. Cells were then maintained for 3 additional hours and lysed in 1 ml TRIZOL® (Invitrogen) for RNA isolation.
(§3) Caudal epididymides were minced in 1 ml PBS and the number of cells released counted after 1 hour. The total sperm count was assessed in the final suspension by using a hemacytometer (Dakhova et al., 2009, Endocrinology 150:404-412). Circulating levels of testosterone, estradiol (E2), and progesterone were measured by radioimmunoassay (RIA) from Diagnostic Systems Laboratories (Testosterone RIA DSL-4000, Estradiol RIA DSL-43100, and Progesterone RIA-3900).

For the next assay, the system named is testis explants. Briefly: Osteocalcin stimulation of testis explants, testosterone RIA. In kind it is cell-based, mouse. As to conditions: increasing amounts of osteocalcin (0-100 ng/ml). The protocol: as §1, §2, §3
In assay [2] the test system is WT mice. Briefly: Daily osteocalcin injections in WT mice for 12 weeks. In kind it is in vivo, mouse. The protocol: WT mice (n=6) were injected daily with either 3 ng/g or 30 ng/g of uncarboxylated osteocalcin for 12 weeks. […] Likewise, serum testosterone levels were increased in osteocalcin-injected mice compared to vehicle-injected mice (FIG. 7D).
as §3
One testis or ovary from each mouse was randomly selected for molecular analysis and the other one was used for histology. Specimens were collected, weighed, and fixed in Bouin's fixative for histological analyses before being dehydrated through graded ethanol, processed for paraffin embedding, and serially sectioned at 5 μm. For histological analysis, sections of testes and ovaries were stained with periodic acid-Schiff and counterstained with hematoxylin. TUNEL labeling was performed using the ApopTag Peroxydase In Situ Apoptosis detection kit (Millipore-57100). Apoptotic indices were determined by counting the total number of TUNEL-positive cells or the number of TUNEL positive spermatocytes for all stage tubules. Approximately 500 tubules were counted on at least 4 cross-sections located at midtestis for each animal.

Assay [3] concerns WT mice. The assay is described as follows: Circulating testosterone after osteocalcin injection in WT mice. The assay is classed as in vivo, mouse. As to conditions: injection 3 ng/g of body weight, 1, 4 and 8 hours. The protocol: as §3
In a further assay the test system is Leydig cell cultures. Briefly: Expression of testosterone biosynthesis enzymes in Leydig cell cultures treated with uncarboxylated osteocalcin. The following applies: qPCR. The assay is classed as cell-based, mouse. Here is the method:
as §1, §2
(§4) RNA was purified from tissues, primary Leydig cells, or cultured cells using TRIZOL® (Invitrogen). RNA isolation, cDNA preparation, and qPCR analysis was carried out following standard protocols. qPCR analyses were performed using specific quantitative PCR primers from SABiosciences.
For orientation: Real-time PCR tracks product formation cycle by cycle.

The subject of assay [4] is primary Leydig cells. Briefly: Measurement of intracellular calcium in primary Leydig cells. The assay is classed as cell-based, mouse. The protocol:
Isolated primary Leydig cells were resuspended in buffer containing 95 mM NaCl, 4.8 mM KCl, 1.2 mM MgSO4, 1.2 mM KH2PO4, 5.6 mM glucose, 25 mM NaHCO3, 1.7 mM CaCl2, 0.25 mM sodium purivate, 1× PenStrep, 20 mM HEPES, 0.3% BSA, pH 7.4 at 37° C. (reagents from Sigma Aldrich, except for sodium pyruvate, PenStrep and HEPES from Invitrogen), plated at the density of 17-25000 cells/well on 96-well plate and placed in an incubator at 33° C., 5% CO2 for 2 hours. Afterward, the FLIPR dye (Calcium Plus Assay Kit Dye, Molecular Devices) diluted in the same buffer supplemented with 2.5 mM probenecid, pH 7.4 was exchanged for the previous medium and incubated with the cells for an additional 30-45 minutes. Following the incubation with the dye, cells were placed in a BD Pathway 855 High-Content Bioimager, recorded for 10-20 seconds to get baseline fluorescence, and then stimulated with doses of osteocalcin ranging from 0.3 to 500 ng/ml as well as control substances: medium, calcium ionophore A23187, 10% FBS, 400 μM Arginine^2+, 100 μM ATP/UTP mix and recorded for an additional 2-5 minutes. The probing time was varied between 1 and 5 seconds. Obtained images were analyzed for the change in fluorescence using ImageJ 1.41.

Another assay relates to Leydig cells. The assay is described as follows: CREB phosphorylation Western blot of Leydig cells. The assay is classed as cell-based, mouse. The protocol: (§5) Western blotting was performed according to standard procedures. Frozen testes were homogenized and lysed with 1×RIPA buffer. Membranes were blocked and then incubated overnight with primary antibody in TBST-5% BSA, followed by incubation with appropriate HRP-conjugated secondary antibody. Signals were visualized with ECL. The following primary antibodies were used: anti-phospho-tyrosin (9416), anti-pERK1/2 (4370), anti-ERK1/2 (9102), anti-pCREB (9198), anti-CREB (4820), anti-Cleaved Caspase-3 (Asp175) (9661) (all from Cell Signaling), and anti-tACE (H-300): sc-13973 and anti-CHD5 (H-185): sc-68390 from Santa Cruz; the anti-osteocalcin was described in Ferron et al., 2010, Biochem. Biophys. Res. Comm. 397:691-696.
For orientation: A western blot detects proteins with antibodies after separation by electrophoresis.

The next assay concerns the target T1, GPRC6a (Mus musculus, UniProt Q8K4Z6).
T1 construct: testes from 8-week old mice were snap frozen in liquid nitrogen and 20 μm thick sections were prepared; from tissue; host or cells: mouse testis sections (Leydig cells), 8-week old mice
T1 sequence (Q8K4Z6 21-928): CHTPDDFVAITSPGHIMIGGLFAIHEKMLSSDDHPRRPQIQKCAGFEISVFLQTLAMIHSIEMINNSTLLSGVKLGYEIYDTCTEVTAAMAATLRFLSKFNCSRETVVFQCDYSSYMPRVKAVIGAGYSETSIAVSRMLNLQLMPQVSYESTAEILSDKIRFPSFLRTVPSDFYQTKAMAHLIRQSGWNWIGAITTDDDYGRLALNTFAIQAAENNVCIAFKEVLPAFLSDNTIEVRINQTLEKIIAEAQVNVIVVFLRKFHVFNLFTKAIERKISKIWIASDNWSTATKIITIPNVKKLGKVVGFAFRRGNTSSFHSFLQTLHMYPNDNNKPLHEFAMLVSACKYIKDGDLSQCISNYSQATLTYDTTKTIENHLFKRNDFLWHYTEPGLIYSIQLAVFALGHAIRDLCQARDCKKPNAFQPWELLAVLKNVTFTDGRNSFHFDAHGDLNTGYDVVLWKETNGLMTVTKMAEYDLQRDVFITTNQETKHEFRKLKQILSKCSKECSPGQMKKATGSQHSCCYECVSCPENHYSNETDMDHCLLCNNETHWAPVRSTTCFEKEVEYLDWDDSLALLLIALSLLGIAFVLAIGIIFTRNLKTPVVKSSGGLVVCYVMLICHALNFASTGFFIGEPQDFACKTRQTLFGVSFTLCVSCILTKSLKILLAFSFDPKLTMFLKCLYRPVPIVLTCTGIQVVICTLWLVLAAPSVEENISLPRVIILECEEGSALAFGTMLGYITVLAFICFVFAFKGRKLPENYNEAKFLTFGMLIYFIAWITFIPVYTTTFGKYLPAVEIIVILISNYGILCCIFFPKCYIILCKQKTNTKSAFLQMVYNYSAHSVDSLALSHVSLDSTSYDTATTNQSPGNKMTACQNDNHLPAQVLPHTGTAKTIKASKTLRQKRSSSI
The assay is described as follows: Receptor binding assay with biotinylated osteocalcin on testis sections. Here is the method:
For binding studies, testes from 8-week old mice were snap frozen in liquid nitrogen and 20 μm thick sections were prepared and dessicated overnight at +4° C. under vacuum. On the following day, sections were rehydrated in ice-cold binding buffer (50 mM TrisHCl, pH 7.4, 10 mM MgCl2, 0.1 mM EDTA and 0.1% BSA) for 15 minutes and incubated for 1 hour in the presence of biotinylated osteocalcin. […] After 3 washes in cold PBS, sections were incubated for 1 hour in the detection system containing 0.1% BSA (ABC Elite, Vector Laboratories), washed again, and incubated with DAB peroxidase substrate kit (Vector Laboratories) according to the manufacturer's protocol. After a final wash, sections were mounted in water-based mounting medium. As negative controls, sections incubated with the detection system only (ABC Elite and DAB) or OstR−/− testis sections (Basura et al., 2008, Hear. Res. 244:45-50) were used.

The test system of assay [5] is TM3 Leydig cells. The assay is described as follows: ERK1/2 phosphorylation Western blot of Leydig cells. In kind it is cell-based, mouse. Here is the method:
as §5

The subject of assay [6] is TM3 Leydig cells. The assay is described as follows: cAMP quantification in Leydig cells. As to conditions: 30 minutes, 0.5 mM IBMX. In kind it is cell-based, mouse. The protocol:
For cAMP measurements, TM3 Leydig cells were plated in 6 cm dishes (10^7 cells per dish) a day before experiment. Cells were serum starved for 16 hours (in the presence of 0.1% BSA) then pre-incubated in the presence of 0.5 mM IBMX for 30 minutes and stimulated with the indicated concentration of osteocalcin (also in the presence of 0.5 mM IBMX) for 30 minutes. cAMP concentration was measured with the Parameter cAMP kit (R&D Systems, KGE002).

Assay [7] relates to TM3 Leydig cells. The assay is described as follows: Anti-phospho-tyrosine Western blot of Leydig cells. The assay is classed as cell-based, mouse. The following applies: 1 minute. The protocol:
as §5

Assay [8] relates to TM3 Leydig cells. Briefly: qPCR of steroidogenic genes in TM3 Leydig cells treated with osteocalcin. In kind it is cell-based, mouse. As to conditions: osteocalcin 0.3 to 300 ng/ml, 2 hours. Here is the method:
TM3 cells were treated with increasing amounts of osteocalcin and assayed for the expression of genes encoding enzymes of the steroidogenic cascade. […] Thus, whether looked at by in vivo or cell-based assays, osteocalcin promotes testosterone biosynthesis.
Gene expression analyses were performed using real time PCR. DNAse I-treated total RNA was converted to cDNA with the SuperScript III kit (Invitrogen). Real-time PCR were performed using the Taq SYBR Green Supermix with ROX (Biorad) on an MX3000 instrument (Stratagene); beta-actin amplification was used as an internal reference for each sample. All primers were from SuperArray.
as §4

In another assay the target is T2, GPCR6A (Mus musculus, UniProt Q8K4Z6).
T2 sequence (Q8K4Z6 21-928): T1 sequence (Q8K4Z6 21-928)
As to conditions: Christiansen et al., 2007; cited from earlier work.

Where [9] appears, read: WT mice, 3 ng/g or 30 ng/g daily for 12 weeks, both doses.

Where no end group is shown, it is not given here.

As for “uncarboxylated osteocalcin: Recombinant osteocalcin bacterially produced as GST fusion, cleaved with thrombin; completely undercarboxylated at all three sites (YLGASVPSPDPLEPTREQCELNPACDELSDQYGLKTAYKRIYGITI)”, the testosterone secretion entry in the assay with primary Leydig cells [1] and in the assay with testis explants was “dose-dependent increase” each time. Besides, in the assay with WT mice [2] (WT mice injected daily, compared to vehicle-injected mice), the serum testosterone levels entry is “increased”. Further, the sperm cell apoptosis result in the assay on WT mice [2] (setting [9]) is reported as “decreased”. For the same compound, the sperm count entry with WT mice [2] (setting [9]) is given as “significantly increased”. In addition, in the assay with WT mice [2] (setting [9]), the testis weight result was “significantly increased”. Also, the “circulating levels of testosterone” value in the assay with WT mice [3] is listed as “increased”. In the assay on Leydig cell cultures, the “expression of StAR, Cyp11a, Cyp17 and 3β-HSD” value is listed as “increased”. Moreover, the intracellular calcium accumulation entry in the assay on primary Leydig cells [4] is listed as “did not induce”. For the same compound, the CREB phosphorylation entry in the assay on Leydig cells is “favors”. Further, the “competition of osteocalcin binding” value with GPRC6a (excess (100 fold) of unlabeled competitor, WT testis sections) is recorded as “competed away”. The results for the “ERK activation (ERK1/2 phosphorylation)” value in the assay on TM3 Leydig cells [5] (listed as Osteocalcin) and in the assay on TM3 Leydig cells [5] (listed as osteocalcin) were “did not induce” and “absence of ERK1/2 phosphorylation”, respectively. In addition, the values for the cAMP production entry with TM3 Leydig cells [6] (listed as Osteocalcin) and in the assay on TM3 Leydig cells [6] (listed as osteocalcin) were “consistently induced” and “increased”, respectively. The results for the tyrosine phosphorylation result in the assay on TM3 Leydig cells [7] (listed as Osteocalcin) and in the assay on TM3 Leydig cells [7] (listed as osteocalcin) were “did not induce” and “not in osteocalcin treated cells”, respectively. Further, the “expression of StAR, Cyp11a and Cyp17” value in the assay with TM3 Leydig cells [8] was “specifically increased”.

On to `NCCCC[C@H](N)C(=O)O` [lysine], for which, at GPCR6A, the “activation of GPCR6A” value is “activate”.

Turning to `NCCC[C@H](N)C(=O)O` [ornithine], the “activation of GPCR6A” value on GPCR6A is “activate”.

For “biotinylated osteocalcin: biotinylated osteocalcin used as a ligand in binding assays on mouse testes (YLGASVPSPDPLEPTREQCELNPACDELSDQYGLKTAYKRIYGITI; ends and bridges not checked; also: biotinylated, site not given here)”, the “binding to GPRC6a-deficient testes” value with GPRC6a (GPRC6a-deficient testis sections) is reported as “no binding was detected”. Further, the “binding to Leydig cells” value with GPRC6a (WT mouse testis sections) is on record as “bound”.

Turning to `N=C(N)NCCC[C@H](N)C(=O)O` [arginine], the “activation of GPCR6A” value on GPCR6A is listed as “activate”.
